Reference: patent US6995143B2, “Macrolides with antibacterial activity” (Basilea Pharmaceutica AG, priority 2002, dated 2006)
≈ marks a conversion by molar mass, not a printed value.

Assays:
Assay type in all cases: cell-based
[1] = tested on: Haemophilus influenzae QK12/87; experiment: MIC, standard agar dilution method using HTM medium
Summary of the method: (§1)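 NCCLS M7-A5 dilution protocol for aerobic bacteria; H. influenzae strains; MIC read per that standard.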

[2] = tested on: Haemophilus influenzae 12214; experiment: as above
Summary of the method: as §1

[3] = tested on: Haemophilus influenzae QK50; experiment: as above
Summary of the method: as §1

[4] = tested on: Haemophilus influenzae B1501; experiment: as above
Summary of the method: as §1

[5] = tested on: Staphylococcus aureus 1086; experiment: MIC, standard microdilution technique
Summary of the method: (§2)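 NCCLS M7-A5 dilution protocol for aerobic bacteria; MIC read per that approved standard.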

[6] = tested on: Staphylococcus aureus 745; experiment: MIC, standard microdilution technique
Summary of the method: as §2

[7] = tested on: Escherichia coli ATCC 25922; experiment: MIC, standard microdilution technique
Summary of the method: as §2

[8] = tested on: Staphylococcus aureus ATCC 29213; experiment: MIC, standard microdilution technique
Summary of the method: as §2

[9] = tested on: Streptococcus pneumoniae 12288; experiment: MIC, standard microdilution technique
Summary of the method: as §2

[10] = tested on: Streptococcus pneumoniae l/l; experiment: MIC, standard microdilution technique
Summary of the method: as §2

[11] = tested on: Streptococcus pneumoniae SL199T; experiment: MIC, standard microdilution technique
Summary of the method: as §2

[12] = tested on: Streptococcus pneumoniae ¼; experiment: MIC, standard microdilution technique
Summary of the method: as §2

SMILES	minimum inhibitory concentration (MIC), Strain I [1]	minimum inhibitory concentration (MIC), Strain K [2]	minimum inhibitory concentration (MIC), Strain L [3]	minimum inhibitory concentration (MIC), Strain M [4]	minimum inhibitory concentration (MIC), Strain B [5]	minimum inhibitory concentration (MIC), Strain C [6]	minimum inhibitory concentration (MIC), Strain D [7]	minimum inhibitory concentration (MIC), Strain A [8]	minimum inhibitory concentration (MIC), Strain H [9]	minimum inhibitory concentration (MIC), Strain E [10]	minimum inhibitory concentration (MIC), Strain G [11]	minimum inhibitory concentration (MIC), Strain F [12]
CC[C@H]1OC(=O)[C@H](C)C(=O)[C@H](C)[C@@H](O[C@@H]2O[C@H](C)C[C@H](N(C)C)[C@H]2O)[C@](C)(OC)C[C@@H](C)C(=O)[C@H](C)[C@H]2[C@@H](SCCC(=O)Nc3ccc4ncccc4c3)C(=O)O[C@@]21C [Example 41]	8 µg/mL (≈ 9.5 µM)	8 µg/mL (≈ 9.5 µM)	16 µg/mL (≈ 19 µM)	8 µg/mL (≈ 9.5 µM)	<=0.06 μg/ml	>32 µg/mL	>32 µg/mL	<=0.06 μg/ml	>32 µg/mL	<=0.06 μg/ml	8 µg/mL (≈ 9.5 µM)	16 µg/mL (≈ 19 µM)
CC[C@H]1OC(=O)[C@H](C)C(=O)[C@H](C)[C@@H](O[C@@H]2O[C@H](C)C[C@H](N(C)C)[C@H]2O)[C@](C)(OC)C[C@@H](C)C(=O)[C@H](C)[C@H]2[C@@H](S(=O)(=O)CCNC(=O)c3ccc4nonc4c3)C(=O)O[C@@]21C [Example 44]	16 µg/mL (≈ 18.5 µM)	16 µg/mL (≈ 18.5 µM)	16 µg/mL (≈ 18.5 µM)	8 µg/mL (≈ 9.25 µM)	0.125 µg/mL (≈ 0.145 µM)	>32 µg/mL	>32 µg/mL	0.5 µg/mL (≈ 0.578 µM)	>32 µg/mL	<=0.06 μg/ml	16 µg/mL (≈ 18.5 µM)	<=0.06 μg/ml
CC[C@H]1OC(=O)[C@H](C)C(=O)[C@H](C)[C@@H](O[C@@H]2O[C@H](C)C[C@H](N(C)C)[C@H]2O)[C@](C)(OC)C[C@@H](C)C(=O)[C@H](C)[C@H]2[C@@H](SCC(=O)c3ccc(OC)cc3OC)C(=O)O[C@@]21C [Example 45]	8 µg/mL (≈ 9.73 µM)	8 µg/mL (≈ 9.73 µM)	8 µg/mL (≈ 9.73 µM)	4 µg/mL (≈ 4.87 µM)	0.25 µg/mL (≈ 0.304 µM)	>32 µg/mL	>32 µg/mL	0.25 µg/mL (≈ 0.304 µM)	>32 µg/mL	<=0.06 μg/ml	16 µg/mL (≈ 19.5 µM)	0.5 µg/mL (≈ 0.608 µM)
CC[C@H]1OC(=O)[C@H](C)C(=O)[C@H](C)[C@@H](O[C@@H]2O[C@H](C)C[C@H](N(C)C)[C@H]2O)[C@](C)(OC)C[C@@H](C)C(=O)[C@H](C)[C@H]2[C@@H](SCCNc3ncnc4[nH]cnc34)C(=O)O[C@@]21C [Example 51]	1 µg/mL (≈ 1.24 µM)	4 µg/mL (≈ 4.97 µM)	1 µg/mL (≈ 1.24 µM)	2 µg/mL (≈ 2.48 µM)	1 µg/mL (≈ 1.24 µM)	>32 µg/mL	32 µg/mL (≈ 39.8 µM)	1 µg/mL (≈ 1.24 µM)	8 µg/mL (≈ 9.94 µM)	<=0.06 μg/ml	0.5 µg/mL (≈ 0.621 µM)	0.125 µg/mL (≈ 0.155 µM)
CC[C@H]1OC(=O)[C@H](C)C(=O)[C@H](C)[C@@H](O[C@@H]2O[C@H](C)C[C@H](N(C)C)[C@H]2O)[C@](C)(OC)C[C@@H](C)C(=O)[C@H](C)[C@H]2[C@@H](SCCNc3nc(C)nc4ccc(Br)cc34)C(=O)O[C@@]21C [Example 52]	8 µg/mL (≈ 8.81 µM)	16 µg/mL (≈ 17.6 µM)	8 µg/mL (≈ 8.81 µM)	8 µg/mL (≈ 8.81 µM)	<=0.06 μg/ml	>32 µg/mL	>32 µg/mL	0.125 µg/mL (≈ 0.138 µM)	8 µg/mL (≈ 8.81 µM)	<=0.06 μg/ml	4 µg/mL (≈ 4.41 µM)	0.125 µg/mL (≈ 0.138 µM)
